Measurements published in patent publication US20080064735A1, “Method for controlling harmful organisms in crops of useful plants” (priority 2001, published 2008).

Tested on: Plutella xylostella
Assay: Plutella xylostella greenhouse spray test on cauliflower and Bt cauliflower (cry9C)
Assay type: in vivo
Procedure: Seven-week-old cauliflower plants (ordinary cauliflower, variety: Marner Allfrüh) and Bt cauliflower ([…], contains cry9C) were sprayed with the test insecticides with the aid of a track sprayer (200 l/ha). After drying, each of the plants was infected with 5 L2 larvae and 5 L3 larvae of Plutella xylostella. After 2, 4 and 7 days (DAA), feeding damage and mortality were scored. The test was carried out in a greenhouse at 23° C. and a relative atmospheric humidity of 60%.

[1] = 10 g active substance/ha, 2 DAA, Bt cauliflower
[2] = 10 g active substance/ha, 2 DAA, cauliflower
[3] = 10 g active substance/ha, 4 DAA, Bt cauliflower
[4] = 10 g active substance/ha, 4 DAA, cauliflower
[5] = 10 g active substance/ha, 7 DAA, Bt cauliflower
[6] = 10 g active substance/ha, 7 DAA, cauliflower
[7] = 30 g active substance/ha, 2 DAA, Bt cauliflower
[8] = 30 g active substance/ha, 2 DAA, cauliflower
[9] = 30 g active substance/ha, 4 DAA, Bt cauliflower
[10] = 30 g active substance/ha, 4 DAA, cauliflower
[11] = 30 g active substance/ha, 7 DAA, Bt cauliflower
[12] = 30 g active substance/ha, 7 DAA, cauliflower
[13] = 1 g active substance/ha, 2 DAA, Bt cauliflower
[14] = 1 g active substance/ha, 2 DAA, cauliflower
[15] = 1 g active substance/ha, 4 DAA, Bt cauliflower
[16] = 1 g active substance/ha, 4 DAA, cauliflower
[17] = 1 g active substance/ha, 7 DAA, Bt cauliflower
[18] = 1 g active substance/ha, 7 DAA, cauliflower
[19] = 3 g active substance/ha, 2 DAA, Bt cauliflower
[20] = 3 g active substance/ha, 2 DAA, cauliflower
[21] = 3 g active substance/ha, 4 DAA, Bt cauliflower
[22] = 3 g active substance/ha, 4 DAA, cauliflower
[23] = 3 g active substance/ha, 7 DAA, Bt cauliflower
[24] = 3 g active substance/ha, 7 DAA, cauliflower
[25] = 100 g active substance/ha, 2 DAA, Bt cauliflower
[26] = 100 g active substance/ha, 2 DAA, cauliflower
[27] = 100 g active substance/ha, 4 DAA, Bt cauliflower
[28] = 100 g active substance/ha, 4 DAA, cauliflower
[29] = 100 g active substance/ha, 7 DAA, Bt cauliflower
[30] = 100 g active substance/ha, 7 DAA, cauliflower

## C/C(=N\C#N)N(C)Cc1ccc(Cl)nc1 [Acetamiprid]
[1]
  % feeding damage: 0%
  % mortality: 100%
[2]
  % feeding damage: 10%
  % mortality: 0%
[3]
  % feeding damage: 0%
  % mortality: 100%
[4]
  % feeding damage: 12%
  % mortality: 0%
[5]
  % feeding damage: 0%
  % mortality: 100%
[6]
  % feeding damage: 15%
  % mortality: 0%
[7]
  % feeding damage: 0%
  % mortality: 100%
[8]
  % feeding damage: 10%
  % mortality: 0%
[9]
  % feeding damage: 0%
  % mortality: 100%
[10]
  % feeding damage: 12%
  % mortality: 0%
[11]
  % feeding damage: 0%
  % mortality: 100%
[12]
  % feeding damage: 15%
  % mortality: 0%

## N#Cc1nn(-c2c(Cl)cc(C(F)(F)F)cc2Cl)c(N)c1[S+]([O-])C(F)(F)F (stereo not drawn) [Fipronil]
[13]
  % feeding damage: 0%
  % mortality: 70%
[14]
  % feeding damage: 10%
  % mortality: 0%
[15]
  % feeding damage: 0%
  % mortality: 100%
[16]
  % feeding damage: 10%
  % mortality: 0%
[17]
  % feeding damage: 0%
  % mortality: 100%
[18]
  % feeding damage: 12%
  % mortality: 0%
[19]
  % feeding damage: 0%
  % mortality: 100%
[20]
  % feeding damage: 10%
  % mortality: 20%
[21]
  % feeding damage: 0%
  % mortality: 100%
[22]
  % feeding damage: 10%
  % mortality: 20%
[23]
  % feeding damage: 0%
  % mortality: 100%
[24]
  % feeding damage: 12%
  % mortality: 20%
[1]
  % feeding damage: 0%
  % mortality: 100%
[2]
  % feeding damage: 8%
  % mortality: 20%
[3]
  % feeding damage: 0%
  % mortality: 100%
[4]
  % feeding damage: 8%
  % mortality: 20%
[5]
  % feeding damage: 0%
  % mortality: 100%
[6]
  % feeding damage: 10%
  % mortality: 50%
[7]
  % feeding damage: 0%
  % mortality: 100%
[8]
  % feeding damage: 4%
  % mortality: 70%
[9]
  % feeding damage: 0%
  % mortality: 100%
[10]
  % feeding damage: 5%
  % mortality: 100%
[11]
  % feeding damage: 0%
  % mortality: 100%
[12]
  % feeding damage: 5%
  % mortality: 100%
[25]
  % feeding damage: 0%
  % mortality: 100%
[26]
  % feeding damage: 1%
  % mortality: 100%
[27]
  % feeding damage: 0%
  % mortality: 100%
[28]
  % feeding damage: 1%
  % mortality: 100%
[29]
  % feeding damage: 0%
  % mortality: 100%
[30]
  % feeding damage: 1%
  % mortality: 100%
